pIC50: −log10 of the molar value.

The test has as its target T1, Dihydropteroate synthase (Escherichia coli K-12, UniProt P0AC13).
T1 sequence (P0AC13 whole entry): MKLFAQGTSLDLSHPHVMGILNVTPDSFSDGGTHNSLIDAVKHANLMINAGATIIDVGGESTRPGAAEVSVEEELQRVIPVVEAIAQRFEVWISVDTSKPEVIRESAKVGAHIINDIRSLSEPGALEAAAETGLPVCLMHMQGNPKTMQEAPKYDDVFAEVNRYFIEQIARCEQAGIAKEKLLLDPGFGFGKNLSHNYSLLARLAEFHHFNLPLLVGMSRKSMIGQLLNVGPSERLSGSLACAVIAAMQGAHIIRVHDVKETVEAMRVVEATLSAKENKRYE
Briefly: In vitro concentration required to inhibit partially purified dihydropteroate synthase of Escherichia coli by 50%. The following applies: read-out: I50. The format is functional.
On to `COc1ccc(OCCCNc2nc(N)nc(O)c2N=O)cc1`, for which the pIC50 was 5.14.
In the case of `Cc1ccc(S(=O)(=O)Nc2ccc(OCCCNc3nc(N)nc(O)c3N=O)cc2)cc1` it was 6.22; in that of `CS(=O)(=O)c1ccc(OCCCNc2nc(N)nc(O)c2N=O)cc1`, 5.60.
For the molecule `CCCCOc1ccc(OCCCNc2nc(N)nc(O)c2N=O)cc1`, the pIC50 was 5.68.
For the molecule `Nc1nc(O)c(N=O)c(NCCCOc2ccc(C(F)(F)F)cc2)n1`, the pIC50 was 5.85.
In the case of `CCOC(=O)c1ccc(OCCCNc2nc(N)nc(O)c2N=O)cc1`, the pIC50 was 5.54.
The result for `Nc1nc(O)c(N=O)c(NCCCOc2ccc([N+](=O)[O-])cc2)n1` reads 6.00.
For the molecule `COc1cc(OC)cc(OCCCNc2nc(N)nc(O)c2N=O)c1`, the pIC50 was 6.15.
The result for `Nc1nc(O)c(N=O)c(NCCCOc2ccc(O)cc2)n1` reads 5.66; that for `CCOC(=O)c1ccc(NCCCCNc2nc(N)nc(O)c2N=O)cc1`, 5.52.
The result for `Nc1nc(O)c(N=O)c(NCCCNc2ccc(C(=O)O)cc2)n1` reads 5.05; that for `Nc1nc(NCCCOc2ccc(C(=O)O)cc2)c(N=O)c(=O)[nH]1`, 5.18.
The result for `Nc1nc(O)c(N=O)c(NCCCOc2ccc(OCc3ccccc3)cc2)n1` reads 5.52; that for `COc1cc(OCCCNc2nc(N)nc(O)c2N=O)cc(OC)c1OC`, 5.70.
Take `Nc1nc(O)c(N=O)c(NCCCOc2ccccc2OCc2ccccc2)n1`: the pIC50 was 4.74.
In the case of `Nc1nc(O)c(N=O)c(NCCCOc2cc(Cl)cc(Cl)c2)n1` it was 5.85.
In the case of `Nc1nc(O)c(N=O)c(NCCCCNc2ccc(C(=O)O)cc2)n1` it was 5.60; in that of `Nc1nc(O)c(N=O)c(NCCCOc2ccc(Cl)cc2)n1`, 6.00.

These data come from ChEMBL document CHEMBL1123172, “Inhibitors of dihydropteroate synthase: substituent effects in the side-chain aromatic ring of 6-[[3-(aryloxy)propyl]amino]-5-nitrosoisocytosines and synthesis and inhibitory potency of bridged 5-nitrosoisocytosine-p-aminobenzoic acid analogues” (J Med Chem, 1986).
